In patent publication USRE39634E1, “Bisarylimidazoly fatty acid amide hydrolase inhibitors” (Bristol-Myers Squibb Company, priority 2001, dated 2007) one finds IC50 data, which are given here for 14 compounds.

The assay has as its target T1, human FAAH (Homo sapiens, UniProt O00519).
T1 construct: expressed in transfected cells; host or cells: H4 cells stably transfected with human FAAH (Geneticin selection); crude membrane homogenates
T1 sequence (O00519 1-579): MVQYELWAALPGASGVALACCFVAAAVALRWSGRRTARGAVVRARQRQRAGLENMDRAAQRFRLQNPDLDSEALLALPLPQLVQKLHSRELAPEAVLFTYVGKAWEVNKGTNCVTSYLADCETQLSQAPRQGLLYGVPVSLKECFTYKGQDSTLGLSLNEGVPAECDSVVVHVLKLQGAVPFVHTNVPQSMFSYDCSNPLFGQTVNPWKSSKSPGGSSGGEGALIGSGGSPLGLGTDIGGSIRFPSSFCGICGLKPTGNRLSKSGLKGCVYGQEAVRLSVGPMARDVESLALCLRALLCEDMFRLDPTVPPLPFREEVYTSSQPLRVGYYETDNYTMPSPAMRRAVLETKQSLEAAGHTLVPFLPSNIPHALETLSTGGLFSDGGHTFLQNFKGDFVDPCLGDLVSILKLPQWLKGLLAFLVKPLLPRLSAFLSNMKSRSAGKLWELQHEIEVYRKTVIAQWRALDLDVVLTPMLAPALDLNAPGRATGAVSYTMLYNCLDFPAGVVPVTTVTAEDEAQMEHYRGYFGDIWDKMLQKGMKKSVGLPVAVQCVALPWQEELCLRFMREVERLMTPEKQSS
Nature of the assay: Determination of FAAH activity (membrane homogenates of H4-FAAH cells, [3H]-anandamide hydrolysis). In kind it is biochemical. To be noted: transfected human FAAH, H4-FAAH cell membranes, 10 μM anandamide, room temperature, one hour. The method, then: Homogenates of crude membranes were prepared from H4 cells that express transfected human FAAH (H4-FAAH cells). Briefly, cells were grown in DMEM supplemented with 10% FBS and Geneticin at a final concentration of 500 μg/ml (Gibco BRL, Rockville, Md.). Confluent cultures of H4-FAAH cells were rinsed twice with phosphate-buffered saline [138 mM NaCl, 4.1 mM KCl, 5.1 mM Na2PO4, 1.5 mM KH2PO4 (pH 7.5), 37° C.] and incubated for 5-10 min. at 4° C. in lysis buffer [1 mM sodium bicarbonate]. Cells were transferred from plates to polypropylene tubes (16×100 mm), homogenized and centrifuged at 32,000×g for 30 min. Pellets were resuspended by homogenization in lysis buffer and centrifuged at 32,000×g for 30 min. Pellets were resuspended in lysis buffer (15-20 μg protein/ml) then stored at −80° C. until needed. On the day of an experiment, membranes were diluted to 2.67 μg protein/ml in 125 mM Tris-Cl, pH 9.0
Activity of FAAH was measured using a modification of the method described by Omeir et al., 1995 (Life Sci 56:1999, 1995). Membrane homogenates (240 ng protein) were incubated at room temperature for one hour with 1.67 nM anandamide [ethanolamine 1-^3H] (American Radiolabeled Chemical Inc., St Louis, Mo.) and 10 μM anandamide (Sigma/RBI, St. Louis, Mo.) in the absence and presence of inhibitors. The reaction was stopped by the addition of 1 volume of a solution of methanol and dichloroethane (1:1). The mixture was shaken and then centrifuged at 1000×g for 15 min. to separate the aqueous and organic phases. An aliquot of the aqueous phase, containing [^3H]-ethanolamine was withdrawn and counted by scintillation spectroscopy. Data were expressed as the percentage of [^3H]-ethanolamine formed versus vehicle, after subtraction of the background radioactivity determined in the presence of 10 μM arachidonyl trifluoromethyl ketone (ATFMK), an inhibitor of FAAH. IC50 values were determined using a four-parameter logistic equation for dose-response curves.

What is called IC50 is the concentration that gives 50% inhibition. Low values mean greater potency, high ones weaker potency. `Cc1nc(-c2ccccc2)c(-c2ccccc2)n1CCOc1ccc(NC(=O)Oc2ccc(F)c(F)c2)cc1` [Example 52, {4-[2-(2-Methyl-4,5-diphenyl-imidazol-1-yl)-ethoxy]-phenyl}-carbamic acid 3,4-difluoro-phenyl ester] had an IC50 of 1000 to 10000 nM.

For the compound `Cc1nc(-c2ccccc2)c(-c2ccccc2)n1CCCCCC(NC(=O)Oc1ccccc1F)c1ccccc1` (centres unmarked) [Example 74, [6-(2-Methyl-4,5-diphenyl-imidazol-1-yl)-1-phenyl-hexyl]-carbamic acid 2-fluoro-phenyl ester], the IC50 was in the range of 100 to 1000 nM.

Take `Cc1nc(-c2ccccc2)c(-c2ccccc2)n1CCCCCNC(=O)Oc1ccc(C#N)cc1` [Example 38, [5-(2-Methyl-4,5-diphenyl-imidazol-1-yl)-pentyl]-carbamic acid 4-cyano-phenyl ester]: the IC50 lay in the range of 10 to 100 nM.

For `Cc1nc(-c2ccccc2)c(-c2ccccc2)n1CCCOc1ccc(NC(=O)Oc2ccc(F)c(F)c2)cc1` [Example 55, {4-[3-(2-Methyl-4,5-diphenyl-imidazol-1-yl)-propoxy]-phenyl}-carbamic acid 3,4-difluoro-phenyl ester], the IC50 is 100 to 1000 nM.

In the case of `Cc1nc(-c2ccccc2)c(-c2ccccc2)n1CCCCCNC(=O)Oc1ccc(F)cc1F` [Example 33, [5-(2-Methyl-4,5-diphenyl-imidazol-1-yl)-pentyl]-carbamic acid 2,4-difluoro-phenyl ester], the IC50 is 10 to 100 nM.

In the case of `Cc1nc(-c2ccccc2)c(-c2ccccc2)n1CCCCCCNC(=O)Oc1ccc(Cl)cc1` [Example 12, [6-(2-Methyl-4,5-diphenyl-imidazol-1-yl)-hexyl]-carbamic acid 4-chloro-phenyl ester], the IC50 is < 10 nM.

`COc1cccc(OC)c1OC(=O)NCCCCCCCn1c(C)nc(-c2ccccc2)c1-c1ccccc1` [Example 28, [7-(2-Methyl-4,5-diphenyl-imidazol-1-yl)-heptyl]-carbamic acid 2,6-dimethoxy-phenyl ester]: the IC50 fell in the range of 100 to 1000 nM.

As to `COc1ccc(OC(=O)NCCCCCCn2c(C)nc(-c3ccccc3)c2-c2ccccc2)cc1` [Example 13, [6-(2-Methyl-4,5-diphenyl-imidazol-1-yl)-hexyl]-carbamic acid 4-methoxy-phenyl ester], the IC50 was in the range of 10 to 100 nM.

As for `Cc1nc(-c2ccccc2)c(-c2ccccc2)n1CCCCCCNC(=O)O/N=C/c1cccc([N+](=O)[O-])c1` [Example 49, 3-Nitrobenzaldehyde, O-[6-(2-methyl-4,5-diphenyl-1H-imidazol-1-yl)hexylaminocarbonyl]oxime], the IC50 lay in the range of 10 to 100 nM.

`Cc1ccccc1OC(=O)NCCCCCCCn1c(C)nc(-c2ccccc2)c1-c1ccccc1` [Example 26, [7-(2-Methyl-4,5-diphenyl-imidazol-1-yl)-heptyl]-carbamic acid o-tolyl ester] came in with an IC50 of 10 to 100 nM.

`Cc1nc(-c2ccccc2)c(-c2ccccc2)n1CCCCCCNC(=O)O/N=C/c1ccccc1[N+](=O)[O-]` [Example 48, 2-Nitrobenzaldehye, O-[6-(2-methyl-4,5-diphenyl-1H-imidazol-1-yl)hexylaminocarbonyl]oxime]: the IC50 lay in the range of 10 to 100 nM.

On to `COc1ccc(OC(=O)NCCCCCCCn2c(C)nc(-c3ccccc3)c2-c2ccccc2)cc1` [Example 25, [7-(2-Methyl-4,5-diphenyl-imidazol-1-yl)-heptyl]-carbamic acid 4-methoxy-phenyl ester], for which the half-inhibitory concentration (IC50) was in the range of 10 to 100 nM.

Compound `Cc1nc(-c2ccccc2)c(-c2ccccc2)n1CCCOc1ccc(NC(=O)Oc2ccccc2)cc1` [Example 63, {4-[3-(2-Methyl-4,5-diphenyl-imidazol1-yl)-propoxy]-phenyl}-carbamic acid phenyl ester] registered an IC50 of 1000 to 10000 nM.

Compound `COc1ccccc1OC(=O)NCCCCCn1c(C)nc(-c2ccccc2)c1-c1ccccc1` [Example 40, [5-(2-Methyl-4,5-diphenyl-imidazol-1-yl)-pentyl]-carbamic acid 2-methoxy-phenyl ester] returned an IC50 of 100 to 1000 nM.
